Data published in patent US20260224588A1, “BENZODIAZEPINONE-DERIVED INHIBITORS OF EGFR AND HER2” (The Research Foundation for the State University of New York, priority 2023, published 2026).

Columns and labels:
Experiment in all cases: KINOMEscan
Assay type in all cases: binding
[1] = molecular target: T1, ABL1(H396P)-nonphosphorylated (Homo sapiens, UniProt P00519, H396P); conditions: 1 μM of compound 4; read-out: POC
T1 construct: purchased Eurofins DiscoverX Corporation

ACVR2A = ACVR2A (Homo sapiens, UniProt P27037); conditions: 1 μM of compound 4; read-out: POC
BLK = BLK (Homo sapiens, UniProt P51451); conditions: 1 μM of compound 4; read-out: POC
BLK, sequence (P51451 whole entry): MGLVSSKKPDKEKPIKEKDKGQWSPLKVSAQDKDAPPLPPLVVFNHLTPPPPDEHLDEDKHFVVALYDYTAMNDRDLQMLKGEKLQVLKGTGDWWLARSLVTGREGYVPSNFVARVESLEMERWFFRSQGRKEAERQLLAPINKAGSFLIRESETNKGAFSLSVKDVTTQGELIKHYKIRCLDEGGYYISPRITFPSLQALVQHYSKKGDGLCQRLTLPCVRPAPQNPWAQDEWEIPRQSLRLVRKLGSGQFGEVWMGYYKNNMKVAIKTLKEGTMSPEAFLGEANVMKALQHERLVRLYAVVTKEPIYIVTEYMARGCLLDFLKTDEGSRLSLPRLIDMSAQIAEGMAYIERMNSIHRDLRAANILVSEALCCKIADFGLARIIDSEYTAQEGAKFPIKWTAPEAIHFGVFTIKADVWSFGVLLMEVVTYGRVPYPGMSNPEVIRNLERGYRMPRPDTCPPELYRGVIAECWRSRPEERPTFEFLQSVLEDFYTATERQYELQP

CAMK2G = CAMK2G (Homo sapiens, UniProt Q13555); conditions: 1 μM of compound 4; read-out: POC
CAMK2G, sequence (Q13555 whole entry): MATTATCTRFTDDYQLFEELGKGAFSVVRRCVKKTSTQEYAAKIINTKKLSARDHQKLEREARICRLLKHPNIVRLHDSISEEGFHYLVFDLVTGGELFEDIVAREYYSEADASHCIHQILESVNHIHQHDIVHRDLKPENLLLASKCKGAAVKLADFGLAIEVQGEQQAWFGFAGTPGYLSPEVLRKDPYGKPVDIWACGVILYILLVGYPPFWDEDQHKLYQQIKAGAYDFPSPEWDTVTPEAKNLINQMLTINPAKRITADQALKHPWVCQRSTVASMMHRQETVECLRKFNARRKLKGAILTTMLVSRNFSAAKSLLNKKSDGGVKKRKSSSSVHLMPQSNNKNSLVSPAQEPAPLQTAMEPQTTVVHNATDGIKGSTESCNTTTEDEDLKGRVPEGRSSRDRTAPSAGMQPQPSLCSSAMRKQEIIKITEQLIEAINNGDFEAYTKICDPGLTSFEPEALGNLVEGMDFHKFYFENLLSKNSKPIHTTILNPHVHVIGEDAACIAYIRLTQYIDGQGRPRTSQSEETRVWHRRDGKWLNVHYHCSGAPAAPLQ

CDK3 = CDK3 (Homo sapiens, UniProt Q00526); conditions: 1 μM of compound 4; read-out: POC
CDKL2 = CDKL2 (Homo sapiens, UniProt Q92772); conditions: 1 μM of compound 4; read-out: POC
CDKL3 = CDKL3 (Homo sapiens, UniProt Q8IVW4); conditions: 1 μM of compound 4; read-out: POC
DLK = DLK (Homo sapiens, UniProt Q12852); conditions: 1 μM of compound 4; read-out: POC
DYRK1A = DYRK1A (Homo sapiens, UniProt Q13627); conditions: 1 μM of compound 4; read-out: POC
DYRK2 = DYRK2 (Homo sapiens, UniProt Q92630); conditions: 1 μM of compound 4; read-out: POC
FES = molecular target: T2, FES (Homo sapiens, UniProt P07332); conditions: 1 μM of compound 4; read-out: POC
T2 construct: purchased Eurofins DiscoverX Corporation

FLT3(ITD + F691L) = conditions: 1 μM of compound 4
HCK = molecular target: T3, HCK (Homo sapiens, UniProt P08631); conditions: 1 μM of compound 4; read-out: POC
T3 construct: purchased Eurofins DiscoverX Corporation

HPK1 = molecular target: T4, HPK1 (Homo sapiens, UniProt Q92918); conditions: 1 μM of compound 4; read-out: POC
T4 construct: purchased Eurofins DiscoverX Corporation

JNK1 = JNK1 (Homo sapiens, UniProt P45983); conditions: 1 μM of compound 4; read-out: POC
JNK1, sequence (P45983 whole entry): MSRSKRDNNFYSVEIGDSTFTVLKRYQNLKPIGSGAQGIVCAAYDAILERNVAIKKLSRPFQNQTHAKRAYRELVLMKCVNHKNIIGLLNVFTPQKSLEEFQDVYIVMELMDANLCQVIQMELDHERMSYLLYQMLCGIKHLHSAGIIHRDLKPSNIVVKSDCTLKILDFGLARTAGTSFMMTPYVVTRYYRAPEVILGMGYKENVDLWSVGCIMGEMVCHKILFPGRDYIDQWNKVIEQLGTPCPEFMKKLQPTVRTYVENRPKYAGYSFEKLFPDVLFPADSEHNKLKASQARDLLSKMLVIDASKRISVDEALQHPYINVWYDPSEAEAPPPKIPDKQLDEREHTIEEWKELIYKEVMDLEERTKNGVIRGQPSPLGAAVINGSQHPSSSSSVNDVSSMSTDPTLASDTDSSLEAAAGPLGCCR

LRRK2 = LRRK2 (Homo sapiens, UniProt Q5S007); conditions: 1 μM of compound 4; read-out: POC
LYN = LYN (Homo sapiens, UniProt P07948); conditions: 1 μM of compound 4; read-out: POC
MAP3K1 = MAP3K1 (Homo sapiens, UniProt Q13233); conditions: 1 μM of compound 4; read-out: POC
MAP4K4 = MAP4K4 (Homo sapiens, UniProt O95819); conditions: 1 μM of compound 4; read-out: POC
p38-beta = molecular target: T5, p38-beta (Homo sapiens, UniProt Q15759); conditions: 1 μM of compound 4; read-out: POC
T5 construct: purchased Eurofins DiscoverX Corporation (KINOMEscan)

PFCDPK1(P. falciparum) = molecular target: T6, PFCDPK1(P. falciparum) (Plasmodium falciparum, UniProt P62344); conditions: 1 μM of compound 4; read-out: POC
T6 construct: purchased Eurofins DiscoverX Corporation (KINOMEscan)
T6 sequence (P62344 whole entry): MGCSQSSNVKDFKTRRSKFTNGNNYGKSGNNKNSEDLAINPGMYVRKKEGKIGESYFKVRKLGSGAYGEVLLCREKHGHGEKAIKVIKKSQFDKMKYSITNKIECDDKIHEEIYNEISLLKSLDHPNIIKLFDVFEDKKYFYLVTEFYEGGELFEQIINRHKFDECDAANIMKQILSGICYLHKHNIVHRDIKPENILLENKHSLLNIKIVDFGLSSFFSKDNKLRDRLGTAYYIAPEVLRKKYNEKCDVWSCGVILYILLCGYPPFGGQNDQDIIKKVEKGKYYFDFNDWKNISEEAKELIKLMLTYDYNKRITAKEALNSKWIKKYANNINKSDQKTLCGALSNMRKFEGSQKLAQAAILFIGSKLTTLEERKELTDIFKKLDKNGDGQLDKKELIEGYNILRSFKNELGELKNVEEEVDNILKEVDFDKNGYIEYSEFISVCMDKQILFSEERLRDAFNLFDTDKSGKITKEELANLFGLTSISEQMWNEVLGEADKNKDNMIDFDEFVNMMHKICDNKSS

PFPK5(P. falciparum) = molecular target: T7, PFPK5(P. falciparum) (Plasmodium falciparum, UniProt P61075); conditions: 1 μM of compound 4; read-out: POC
T7 construct: purchased Eurofins DiscoverX Corporation (KINOMEscan)
T7 sequence (P61075 whole entry): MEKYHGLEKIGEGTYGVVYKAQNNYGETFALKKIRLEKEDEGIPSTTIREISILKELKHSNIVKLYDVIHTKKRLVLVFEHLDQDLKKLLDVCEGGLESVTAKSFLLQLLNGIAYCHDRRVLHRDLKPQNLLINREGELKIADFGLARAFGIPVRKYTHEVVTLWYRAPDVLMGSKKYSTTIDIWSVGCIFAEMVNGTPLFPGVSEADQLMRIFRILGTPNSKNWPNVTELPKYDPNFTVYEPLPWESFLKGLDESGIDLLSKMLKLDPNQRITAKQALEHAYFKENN

PIK3C2G = PIK3C2G (Homo sapiens, UniProt O75747); conditions: 1 μM of compound 4; read-out: POC
PIK3CA = PIK3CA (Homo sapiens, UniProt P42336); conditions: 1 μM of compound 4; read-out: POC
PIP5K1C = PIP5K1C (Homo sapiens, UniProt O60331); conditions: 1 μM of compound 4; read-out: POC
PLK2 = PLK2 (Homo sapiens, UniProt Q9NYY3); conditions: 1 μM of compound 4; read-out: POC
PRKCE = PRKCE (Homo sapiens, UniProt Q02156); conditions: 1 μM of compound 4; read-out: POC
RET(V804L) = molecular target: T8, RET(V804L) (Homo sapiens, UniProt P07949, V804L); conditions: 1 μM of compound 4; read-out: POC
T8 construct: purchased Eurofins DiscoverX Corporation (KINOMEscan screening service)

ROCK1 = molecular target: T9, ROCK1 (Homo sapiens, UniProt Q13464); conditions: 1 μM of compound 4; read-out: POC
T9 construct: purchased Eurofins DiscoverX Corporation (KINOMEscan screening service)

[2] = molecular target: T10, RPS6KA4(Kin.Dom.1-N-terminal) (Homo sapiens, UniProt O75676); conditions: 1 μM of compound 4; read-out: POC
T10 construct: RPS6KA4(Kin.Dom.1-N-terminal); purchased Eurofins DiscoverX Corporation (KINOMEscan screening service)

[3] = molecular target: T11, RSK4(Kin.Dom.2-C-terminal) (Homo sapiens, UniProt Q9UK32); conditions: 1 μM of compound 4; read-out: POC
T11 construct: RSK4(Kin.Dom.2-C-terminal); purchased Eurofins DiscoverX (KINOMEscan service)
T11 sequence (Q9UK32 426-683 limits assumed): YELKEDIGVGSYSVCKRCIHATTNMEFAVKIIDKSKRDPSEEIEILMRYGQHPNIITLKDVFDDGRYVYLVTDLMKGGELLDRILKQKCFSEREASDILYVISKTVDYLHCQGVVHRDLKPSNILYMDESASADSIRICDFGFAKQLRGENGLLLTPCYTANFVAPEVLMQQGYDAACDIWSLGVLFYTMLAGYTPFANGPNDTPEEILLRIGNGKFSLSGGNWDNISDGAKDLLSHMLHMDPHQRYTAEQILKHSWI

SIK2 = molecular target: T12, SIK2 (Homo sapiens, UniProt Q9H0K1); conditions: 1 μM of compound 4; read-out: POC
T12 construct: purchased Eurofins DiscoverX (KINOMEscan service)

STK35 = molecular target: T13, STK35 (Homo sapiens, UniProt Q8TDR2); conditions: 1 μM of compound 4; read-out: POC
T13 construct: purchased Eurofins DiscoverX (KINOMEscan service)
T13 sequence (Q8TDR2 whole entry): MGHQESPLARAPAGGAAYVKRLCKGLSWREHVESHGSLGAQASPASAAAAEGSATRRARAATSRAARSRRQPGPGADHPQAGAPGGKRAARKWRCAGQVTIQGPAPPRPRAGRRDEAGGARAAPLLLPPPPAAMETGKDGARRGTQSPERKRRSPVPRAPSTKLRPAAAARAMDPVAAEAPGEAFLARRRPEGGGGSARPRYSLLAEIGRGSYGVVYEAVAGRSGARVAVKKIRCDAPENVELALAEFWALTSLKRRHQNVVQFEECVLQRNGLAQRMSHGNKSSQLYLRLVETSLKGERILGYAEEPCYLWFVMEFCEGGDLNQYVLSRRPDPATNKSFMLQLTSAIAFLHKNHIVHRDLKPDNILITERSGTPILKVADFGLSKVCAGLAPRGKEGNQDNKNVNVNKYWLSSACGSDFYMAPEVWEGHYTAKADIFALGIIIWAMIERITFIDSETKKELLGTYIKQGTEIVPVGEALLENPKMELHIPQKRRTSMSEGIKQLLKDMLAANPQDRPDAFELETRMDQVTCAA

TIE2 = molecular target: T14, TIE2 (Homo sapiens, UniProt Q02763); conditions: 1 μM of compound 4; read-out: POC
T14 construct: purchased Eurofins DiscoverX Corporation

TNK2 = molecular target: T15, TNK2 (Homo sapiens, UniProt Q07912); conditions: 1 μM of compound 4; read-out: POC
T15 construct: purchased Eurofins DiscoverX Corporation
T15 sequence (Q07912 whole entry): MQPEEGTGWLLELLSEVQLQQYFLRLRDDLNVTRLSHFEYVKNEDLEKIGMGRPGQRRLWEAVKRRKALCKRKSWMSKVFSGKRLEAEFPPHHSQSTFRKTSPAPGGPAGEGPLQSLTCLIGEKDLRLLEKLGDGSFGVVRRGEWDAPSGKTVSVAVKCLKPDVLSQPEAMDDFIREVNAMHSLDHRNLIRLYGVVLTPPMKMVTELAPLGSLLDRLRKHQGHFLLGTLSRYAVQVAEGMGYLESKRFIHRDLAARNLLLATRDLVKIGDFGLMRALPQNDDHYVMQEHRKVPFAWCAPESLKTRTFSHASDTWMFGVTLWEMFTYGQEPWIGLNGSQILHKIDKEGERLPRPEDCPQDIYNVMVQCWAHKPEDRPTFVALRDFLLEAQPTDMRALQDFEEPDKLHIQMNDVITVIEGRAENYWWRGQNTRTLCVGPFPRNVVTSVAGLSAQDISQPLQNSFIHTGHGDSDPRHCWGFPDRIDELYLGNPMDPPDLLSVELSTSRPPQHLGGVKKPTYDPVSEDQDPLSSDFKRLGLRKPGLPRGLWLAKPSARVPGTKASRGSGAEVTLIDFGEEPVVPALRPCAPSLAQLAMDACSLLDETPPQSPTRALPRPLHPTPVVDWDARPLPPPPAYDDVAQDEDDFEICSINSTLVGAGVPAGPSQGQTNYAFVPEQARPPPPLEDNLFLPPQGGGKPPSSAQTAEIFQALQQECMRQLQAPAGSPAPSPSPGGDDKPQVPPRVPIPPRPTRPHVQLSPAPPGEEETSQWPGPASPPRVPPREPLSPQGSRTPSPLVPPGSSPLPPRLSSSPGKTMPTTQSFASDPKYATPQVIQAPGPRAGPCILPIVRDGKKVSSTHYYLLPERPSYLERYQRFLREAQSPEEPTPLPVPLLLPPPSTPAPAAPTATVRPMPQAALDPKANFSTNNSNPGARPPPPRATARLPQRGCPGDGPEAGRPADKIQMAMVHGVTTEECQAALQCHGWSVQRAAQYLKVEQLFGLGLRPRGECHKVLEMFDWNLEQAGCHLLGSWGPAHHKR

TRKB = molecular target: T16, TRKB (Homo sapiens, UniProt Q16620); conditions: 1 μM of compound 4; read-out: POC
T16 construct: purchased Eurofins DiscoverX Corporation
T16 sequence (Q16620 32-822): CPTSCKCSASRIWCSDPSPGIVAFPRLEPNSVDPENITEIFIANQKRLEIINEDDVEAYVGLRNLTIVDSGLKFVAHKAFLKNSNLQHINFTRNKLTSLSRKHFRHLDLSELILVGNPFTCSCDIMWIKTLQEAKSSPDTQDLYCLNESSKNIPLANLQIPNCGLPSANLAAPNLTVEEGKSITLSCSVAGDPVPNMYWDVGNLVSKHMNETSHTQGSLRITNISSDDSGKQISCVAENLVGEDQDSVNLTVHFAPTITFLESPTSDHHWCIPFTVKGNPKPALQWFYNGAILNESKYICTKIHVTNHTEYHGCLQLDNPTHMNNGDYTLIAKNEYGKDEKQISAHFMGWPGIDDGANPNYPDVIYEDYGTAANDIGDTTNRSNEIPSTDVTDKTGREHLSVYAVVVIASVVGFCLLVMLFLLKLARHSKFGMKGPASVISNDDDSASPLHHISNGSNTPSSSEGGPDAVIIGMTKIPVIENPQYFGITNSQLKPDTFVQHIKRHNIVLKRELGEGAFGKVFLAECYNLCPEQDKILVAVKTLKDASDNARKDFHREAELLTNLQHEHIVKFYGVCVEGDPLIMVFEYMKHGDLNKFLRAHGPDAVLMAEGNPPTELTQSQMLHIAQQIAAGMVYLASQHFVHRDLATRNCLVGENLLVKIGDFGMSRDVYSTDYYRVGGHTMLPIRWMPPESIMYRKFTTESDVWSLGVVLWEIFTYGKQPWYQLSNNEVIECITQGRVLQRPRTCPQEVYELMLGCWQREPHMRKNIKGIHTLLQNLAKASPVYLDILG

WNK3 = molecular target: T17, WNK3 (Homo sapiens, UniProt Q9BYP7); conditions: 1 μM of compound 4; read-out: POC
T17 construct: purchased Eurofins DiscoverX

ZAK = molecular target: T18, ZAK (Homo sapiens, UniProt Q9NYL2); conditions: 1 μM of compound 4; read-out: POC
T18 construct: purchased Eurofins DiscoverX

C=CC(=O)Nc1ccc(OC)c(Nc2cc(-c3[nH]c(CC)nc3-c3cccc(NC(=O)c4cccc5c4NC(=O)c4ccccc4N5)c3)ccn2)c1 [Compound 4, N-(3-(5-(2-((5-Acrylamido-2-methoxyphenyl)amino)pyridin-4-yl)-2-ethyl-1H-imidazol-4-yl)phenyl)-11-oxo-10,11-dihydro-5H-dibenzo[b,e][1,4]diazepine-9-carboxamide]
remaining binding at 1 µM [1]: 97%
remaining binding at 1 µM (ACVR2A): 77%
remaining binding at 1 µM (BLK): 1.7%
remaining binding at 1 µM (CAMK2G): 100%
remaining binding at 1 µM (CDK3): 100%
remaining binding at 1 µM (CDKL2): 100%
remaining binding at 1 µM (CDKL3): 100%
remaining binding at 1 µM (DLK): 100%
remaining binding at 1 µM (DYRK1A): 100%
remaining binding at 1 µM (DYRK2): 75%
remaining binding at 1 µM (FES): 28%
POC (FLT3(ITD + F691L)): 79
remaining binding at 1 µM (HCK): 14%
remaining binding at 1 µM (HPK1): 45%
remaining binding at 1 µM (JNK1): 85%
remaining binding at 1 µM (LRRK2): 93%
remaining binding at 1 µM (LYN): 22%
remaining binding at 1 µM (MAP3K1): 100%
remaining binding at 1 µM (MAP4K4): 6.1%
remaining binding at 1 µM (p38-beta): 59%
remaining binding at 1 µM (PFCDPK1(P. falciparum)): 87%
remaining binding at 1 µM (PFPK5(P. falciparum)): 100%
remaining binding at 1 µM (PIK3C2G): 50%
remaining binding at 1 µM (PIK3CA): 70%
remaining binding at 1 µM (PIP5K1C): 78%
remaining binding at 1 µM (PLK2): 100%
remaining binding at 1 µM (PRKCE): 100%
remaining binding at 1 µM (RET(V804L)): 99%
remaining binding at 1 µM (ROCK1): 100%
remaining binding at 1 µM [2]: 96%
remaining binding at 1 µM [3]: 80%
remaining binding at 1 µM (SIK2): 100%
remaining binding at 1 µM (STK35): 69%
remaining binding at 1 µM (TIE2): 71%
remaining binding at 1 µM (TNK2): 3.8%
remaining binding at 1 µM (TRKB): 100%
remaining binding at 1 µM (WNK3): 78%
remaining binding at 1 µM (ZAK): 87%
